In patent US7390910B2, “Compounds for treating tumors” (priority 2003, dated 2008):
*1 amine or outer side, *2 acyl side, *3 side chain or, on linkers, in order; H or OH if unused. Where a SMILES comes first, the peptide text is derived from it. [ ]: non-standard residue; d: D form. The star is where a group is joined. NMePhe(3-Me,β,β-Me2) = CN[C@H](C(=O)O)C(C)(C)c1cccc(C)c1; X1 = C/C(=C\[C@H](C(C)C)N(C)[*:1])C(=O)[*:2]; Tle = CC(C)(C)[C@H](N)C(=O)O; NHBn = c1ccc(CN*)cc1

Columns and labels:
[1] = test system: KB85; test: cells; assay type: cell-based; settings: 3 days, SRB
Method: (§1) Cell Survival Assay: Standard Pharmacological Test Procedure. […] Compounds are incubated with cells for 3 days.

[2] = test system: KB cells; test: cells; assay type: cell-based; settings: 3 days, SRB
Method: as §1

[3] = test system: KBV1; test: cells; assay type: cell-based; settings: for inhibition at 3 µM: KB-V1, 3000 nM; for IC50: 3 days, SRB
Method: as §1

[4] = test system: bovine microtubule-associated protein (MAP)-rich tubulin; assay type: biochemical; settings: 0.3 uM
How it was run: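 This in vitro polymerization assay used bovine tubulin rich in microtubule-associated proteins, prepared at 1.5 mg/ml in GPEM (PEM buffer containing 1 mM GTP) and cleared by a 12,000×g spin. Tubulin solution (100 μl/well) was dispensed onto duplicate 10 μl test samples. Control wells held 0.3% DMSO. A SpectraMax Plus reader recorded turbidity at 340 nm every minute over 60 min at 24° C.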

[5] = test system: Colo205; test: Cell survival assay (SRB), Colo205; assay type: cell-based; settings: Homo sapiens, COLO 205, 72 h, Colo205 cells, 3 days
Method: as §1

SMILES: C/C(=C\[C@H](C(C)C)N(C)C(=O)[C@@H](NC(=O)C(Cc1ccccc1)C(C)(C)c1ccccc1)C(C)(C)C)C(=O)O (stereo partly drawn) [Example 96, (E,4S)-4-[((2S)-3,3-dimethyl-2-{[3-methyl-2-benzyl-3-phenylbutanoyl]amino}butanoyl)(methyl)amino]-2,5-dimethyl-2-hexenoic acid]
- IC50 ([1]; 72 h): 1120 nM
- IC50 ([2]; Homo sapiens, KB, 72 h): 846 nM
- inhibition at 3 µM ([3]; Homo sapiens): 11%
- IC50 ([3]; Homo sapiens, KB-V1, 72 h): 2630 nM
- Tubulin Polym. % inhibition at 0.3 uM [4]: 46%
- IC50 [5]: 340 nM

SMILES: C/C(=C\[C@H](C(C)C)N(C)C(=O)[C@@H](NC(=O)[C@H](O)C(C)(C)c1ccccc1)C(C)(C)C)C(=O)O [Example 108, (E,4S)-4-[{N-[(2R)-2-hydroxy-3-methyl-3-phenylbutanoyl]-3-methyl-L-valyl}(methyl)amino]-2,5-dimethyl-2-hexenoic acid]
- IC50 ([1]; 72 h): > 3000 nM
- IC50 ([2]; Homo sapiens, KB, 72 h): > 3000 nM
- IC50 ([3]; Homo sapiens, KB-V1, 72 h): > 3000 nM
- Tubulin Polym. % inhibition at 0.3 uM [4]: 21%
- IC50 [5]: > 1000 nM

SMILES: CCOC(=O)/C(C)=C/[C@H](C(C)C)N(C)C(=O)[C@@H](NC(=O)C(SC)C(C)(C)c1ccccc1)C(C)(C)C (stereo partly drawn) [Example 101, Ethyl (E,4S)-4-[((2S)-3,3-dimethyl-2-{[3-methyl-2-methylsulfanyl-3-phenylbutanoyl]amino}butanoyl)(methyl)amino]-2,5-dimethyl-2-hexenoate]
- IC50 ([1]; 72 h): 1820 nM
- IC50 ([2]; Homo sapiens, KB, 72 h): 1100 nM
- IC50 ([3]; Homo sapiens, KB-V1, 72 h): 4580 nM
- IC50 [5]: > 1000 nM

SMILES: CCOC(=O)/C(C)=C/[C@H](C(C)C)N(C)C(=O)[C@@H](NC(=O)C(Cc1ccccc1)C(C)(C)c1ccccc1)C(C)(C)C (stereo partly drawn) [Example 95, Ethyl (E,4S)-4-[((2S)-3,3-dimethyl-2-{[3-methyl-2-(benzyl)-3-phenylbutanoyl]amino}butanoyl)(methyl)amino]-2,5-dimethyl-2-hexenoate]
- IC50 ([1]; 72 h): 756 nM
- IC50 ([2]; Homo sapiens, KB, 72 h): 575 nM
- inhibition at 3 µM ([3]; Homo sapiens): 15%
- IC50 [5]: > 1000 nM

SMILES: C=CCC(C(=O)N[C@H](C(=O)N(C)[C@H](/C=C(\C)C(=O)OCC)C(C)C)C(C)(C)C)C(C)(C)c1ccccc1 (stereo partly drawn) [Example 97, Ethyl (E,4S)-4-[((2S)-3,3-dimethyl-2-{[3-methyl-2-allyl-3-phenylbutanoyl]amino}butanoyl)(methyl)amino]-2,5-dimethyl-2-hexenoate]
- IC50 ([1]; 72 h): 3320 nM
- IC50 ([2]; Homo sapiens, KB, 72 h): 1910 nM
- KBV1 % inhibition @6000 [3]: 17%@6000
- IC50 [5]: > 1000 nM

SMILES: CCOC(=O)/C(C)=C/[C@H](C(C)C)N(C)C(=O)[C@@H](NC(=O)C(CC)C(C)(C)c1ccccc1)C(C)(C)C (stereo partly drawn) [Example 99, Ethyl (E,4S)-4-[((2S)-3,3-dimethyl-2-{[3-methyl-2-ethyl-3-phenylbutanoyl]amino}butanoyl)(methyl)amino]-2,5-dimethyl-2-hexenoate]
- IC50 ([1]; 72 h): 3640 nM
- IC50 ([2]; Homo sapiens, KB, 72 h): 3480 nM
- KBV1 % inhibition @6000 [3]: 16%@6000
- IC50 [5]: > 1000 nM

SMILES: CN[C@H](C(=O)N[C@H](C(=O)N(C)[C@H](/C=C(\C)C=O)C(C)C)C(C)(C)C)C(C)(C)c1ccc([S+](C)C)cc1.O=C(O)C(F)(F)F [Example 83, 4-(dimethylsulfonio)-N,β,β-trimethyl-L-phenylalanyl-N^1-[(1S,2E)-1-isopropyl-3-methyl-4-oxo-2-butenyl]-N^1,3-dimethyl-L-valinamide trifluoroacetic acid]
- IC50 ([3]; trifluoroacetic acid): > 3000 nM
- IC50 ([3]; Homo sapiens, KB-V1, 72 h): 2400 nM
- Tubulin Polym. % inhibition at 0.3 uM [4]: 0%
- IC50 [5]: 46 nM

SMILES: CN[C@H](C(=O)N[C@H](C(=O)N(C)[C@H](/C=C(\C)C(=O)N1CCC[C@H]1C(=O)O)C(C)C)C(C)(C)C)C(C)(C)C1CCCCC1 [Example 46, 3-cyclohexyl-N-methyl-L-valyl-N^1-{(1S,2E)-4-[(2S)-2-carboxypyrrolidin-1-yl]-1-isopropyl-3-methyl-4-oxobut-2-enyl}-N^1,3-dimethyl-L-valinamide]
- IC50 ([1]; 72 h): 1720 nM
- IC50 ([2]; Homo sapiens, KB, 72 h): 450 nM
- inhibition at 3 µM ([3]; Homo sapiens): 1%
- Tubulin Polym. % inhibition at 0.3 uM [4]: 99%

SMILES: CN[C@H](C(=O)N[C@H](C(=O)N(C)[C@H](/C=C(\C)C(O)c1ccccc1)C(C)C)C(C)(C)C)C(C)(C)c1ccccc1 (stereo partly drawn) [Example 74, N,β,β-trimethyl-L-phenylalanyl-N-1-[(1S,2E)-4-hydroxy-1-isopropyl-3-methyl-4-phenylbut-2-enyl}-N-1,3-dimethyl-L-valinamide]
- IC50 [1]: 54 nM
- IC50 [2]: 19 nM
- IC50 [3]: 466 nM
- Tubulin Polym. % inhibition at 0.3 uM [4]: 73%

SMILES: CN[C@H](C(=O)N[C@H](C(=O)N(C)[C@H](/C=C(\C)C(=O)N1CCC[C@H]1C(=O)N1CCC[C@H]1C(=O)NCc1ccccc1)C(C)C)C(C)(C)C)C(C)(C)c1ccc(C)c(C)c1 [Example 10, 1-{(2E,4S)-2,5-Dimethyl-4-[methyl(N,β,β,3,4-pentamethyl-L-phenylalanyl-3-methyl-L-valyl)amino]hex-2-enoyl}-L-prolyl-N-benzyl-L-prolinamide]
- IC50 ([1]; 72 h): 19.7 nM
- IC50 ([2]; Homo sapiens, KB, 72 h): 1.5 nM
- IC50 ([3]; Homo sapiens, KB-V1, 72 h): 2140 nM
- Tubulin Polym. % inhibition at 0.3 uM [4]: 42%

SMILES: CN[C@H](C(=O)N[C@H](C(=O)N(C)[C@H](/C=C(\C)C(=O)N1CCOCC1)C(C)C)C(C)(C)C)C(C)(C)c1ccc(C)c(C)c1 [Example 2, N,β,β,3,4-Pentamethyl-L-phenylalanyl-N^1-[(1S,2E)-1-isopropyl-3-methyl-4-morpholin-4-yl-4-oxobut-2-enyl]-N^1,3-dimethyl-L-valinamide]
- IC50 ([1]; 72 h): 62 nM
- IC50 ([2]; Homo sapiens, KB, 72 h): 34 nM
- IC50 ([3]; Homo sapiens, KB-V1, 72 h): 162 nM
- Tubulin Polym. % inhibition at 0.3 uM [4]: 37%

SMILES: CN[C@H](C(=O)N[C@H](C(=O)N(C)[C@H](/C=C(\C)C(=O)N1CCN(C)CC1)C(C)C)C(C)(C)C)C(C)(C)c1ccc(C)c(C)c1 [Example 7, N,β,β,3,4-Pentamethyl-L-phenylalanyl-N^1-[(1S,2E)-1-isopropyl-3-methyl-4-(4-methylpiperazin-1-yl)-4-oxobut-2-enyl]-N^1,3-dimethyl-L-valinamide]
- IC50 ([1]; 72 h): 68 nM
- IC50 ([2]; Homo sapiens, KB, 72 h): 47 nM
- IC50 ([3]; Homo sapiens, KB-V1, 72 h): 2190 nM
- Tubulin Polym. % inhibition at 0.3 uM [4]: 32%

SMILES: CN[C@H](C(=O)N[C@H](C(=O)N(C)[C@H](/C=C(\C)C(=O)N1CCC[C@@H]1C(=O)N1CCC[C@@H]1C(=O)NCc1ccccc1)C(C)C)C(C)(C)C)C(C)(C)c1cccc(C)c1.O=C(O)C(F)(F)F [Example 9, 1-{(2E,4S)-2,5-Dimethyl-4-[methyl(N,β,β,3-tetramethyl-L-phenylalanyl-3-methyl-L-valyl)amino]hex-2-enoyl}-D-prolyl-N-benzyl-D-prolinamide trifluoroacetic acid salt] (H-[NMePhe(3-Me,β,β-Me2)][Tle][X1][dP][dP]-NHBn)
- IC50 ([1]; 72 h): 23 nM
- IC50 ([2]; Homo sapiens, KB, 72 h): 1.4 nM
- inhibition at 3 µM ([3]; Homo sapiens): 21%
- Tubulin Polym. % inhibition at 0.3 uM [4]: 56%

SMILES: CN[C@H](C(=O)N[C@H](C(=O)N(C)[C@H](/C=C(\C)C(=O)N1CCN(C)CC1)C(C)C)C(C)(C)C)C(C)(C)c1cccc(C)c1.O=C(O)C(F)(F)F [Example 6, N,β,β,3-Tetramethyl-L-phenylalanyl-N^1-[(1S,2E)-1-isopropyl-3-methyl-4-(4-methylpiperazin-1-yl)-4-oxobut-2-enyl]-N^1,3-dimethyl-L-valinamide trifluoroacetic acid salt]
- IC50 ([1]; 72 h): 123 nM
- IC50 ([2]; Homo sapiens, KB, 72 h): 64 nM
- inhibition at 3 µM ([3]; Homo sapiens): 33%
- Tubulin Polym. % inhibition at 0.3 uM [4]: 64%
